Results on 33 molecules are retold here after US8557796B2, “Substituted 1-oxa-2,8-diaza-spiro [4,5] dec-2-ene derivatives and related treatment methods” (Gruenenthal GmbH, priority 2001, dated 2013).

In this experiment the target is T1, 5HT-uptake (Rattus norvegicus, UniProt P31652).
T1 construct: synaptosomes from rat brain regions were freshly isolated; from tissue; host or cells: P2 synaptosome fraction from rat brain regions
T1 sequence (P31652 whole entry): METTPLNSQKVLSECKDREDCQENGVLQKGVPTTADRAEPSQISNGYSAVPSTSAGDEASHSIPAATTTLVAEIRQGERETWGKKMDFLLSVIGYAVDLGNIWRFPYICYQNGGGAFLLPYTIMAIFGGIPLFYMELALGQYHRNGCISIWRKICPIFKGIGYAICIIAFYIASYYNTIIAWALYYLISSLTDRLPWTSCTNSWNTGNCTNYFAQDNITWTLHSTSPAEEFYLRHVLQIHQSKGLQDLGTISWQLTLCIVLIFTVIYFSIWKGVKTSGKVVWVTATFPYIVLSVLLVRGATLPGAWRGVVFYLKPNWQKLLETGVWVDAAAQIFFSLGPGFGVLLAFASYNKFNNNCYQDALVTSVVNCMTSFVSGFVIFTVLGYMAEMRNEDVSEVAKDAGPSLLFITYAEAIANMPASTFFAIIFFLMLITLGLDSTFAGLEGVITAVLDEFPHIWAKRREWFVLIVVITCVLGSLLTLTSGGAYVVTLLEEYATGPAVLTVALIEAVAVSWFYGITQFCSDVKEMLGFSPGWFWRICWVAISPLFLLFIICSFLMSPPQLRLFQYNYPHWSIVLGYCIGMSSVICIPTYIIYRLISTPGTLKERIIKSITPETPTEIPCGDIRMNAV
As to the kind of experiment: Serotonin uptake inhibition (5HT uptake) in synaptosomes. It is filed as biochemical. The note with it: rat brain synaptosomes.
Description: Tests on Serotonin Uptake (5HT Uptake Inhibition)
In order to be able to carry out these in vitro studies, synaptosomes from rat brain regions were freshly isolated.
With `O=C(C1=NOC2(CCN(S(=O)(=O)Cc3ccccc3)CC2)C1)N1CCN(c2ccc(Cl)cc2)CC1` [Example 46, [4-(4-chloro-phenyl)-piperazin-1-yl]-(8-phenylmethane-sulphonyl-1-oxa-2,8-diaza-spiro[4,5]dec-2-en-3-yl)-methanone], 10 µM produced 40% inhibition.

On to `O=C(NCc1cc(F)ccc1F)C1=NOC2(CCN(S(=O)(=O)c3ccc(Cl)s3)CC2)C1` [Example 49, 8-(5-chloro-thiophene-2-sulphonyl)-1-oxa-2,8-diaza-spiro[4,5]dec-2-ene-3 carboxylic acid 2,5-difluoro-benzylamide], for which the inhibition at 10 µM was determined as 50%.

`CN(C)S(=O)(=O)N1CCC2(CC1)CC(C(=O)NCCc1ccc(Cl)cc1)=NO2` [Example 58, 8-dimethylsulphamoyl-1-oxa-2,8-diaza-spiro[4,5]dec-2-ene-3-carboxylic acid [2-(4-chlorophenyl)-ethyl]-amide]: testing at 10 µM gave an inhibition of 55%.

`CN(Cc1cccnc1)C(=O)C1=NOC2(CCN(S(=O)(=O)c3cc(Cl)ccc3Cl)CC2)C1` [Example 92, 8-(2,5-dichloro-benzenesulphonyl)-1-oxa-2,8-diaza-spiro[4,5]dec-2-ene-3-carboxylic acid methyl-pyridin-3-ylmethyl-amide] had an inhibition at 10 µM of 51%.

`CCN(CC)c1ccc(C(=O)NNC(=O)C2=NOC3(CCN(S(=O)(=O)c4cccs4)CC3)C2)cc1` [Example 10, 4-diethylamino-benzoic acid N′-[8-(thiophene-2-sulphonyl)-1-oxa-2,8-diaza-spiro[4,5]dec-2-ene-3-carbonyl]-hydrazide] came in with an inhibition at 10 µM of 40%.

For `CCOC(=O)N1CCC(NC(=O)C2=NOC3(CCN(C(=O)c4ccc(Br)cc4)CC3)C2)CC1` [Example 62, 4-{[8-(4-bromo-benzoyl)-1-oxa-2,8-diaza-spiro[4,5]dec-2-ene-3-carbonyl]-amino)-piperidine-l-carboxylic acid ethyl ester], the “5HT-uptake, 10 μM, % inhibition” value was 73%.

In turn, `CCOC(=O)N1CCC(NC(=O)C2=NOC3(CCN(S(=O)(=O)c4cc([N+](=O)[O-])ccc4C)CC3)C2)CC1` [Example 90, 4-{[8-(2-methyl-5-nitro-benzenesulphonyl)-1-oxa-2,8-diaza-spiro[4,5]dec-2-ene-3-carbonyl]-amino}-piperidine-1-carboxylic acid ethyl ester] returned an inhibition at 10 µM of 48%.

With `CCOC(=O)N1CCC(NC(=O)C2=NOC3(CCN(C(=O)c4ccc(F)cc4F)CC3)C2)CC1` [Example 56, 4-{[8-(2,4-difluoro-benzoyl)-1-oxa-2,8-diaza-spiro[4,5]dec-2-ene-3-carbonyl]-amino}-piperidine-1-carboxylic acid ethyl ester], the inhibition at 10 µM amounted to 52%.

Molecule `O=C(NCc1cccs1)C1=NOC2(CCN(C(=O)c3ccccc3Cl)CC2)C1` [Example 152, 8-(2-chloro-benzoyl)-1-oxa-2,8-diaza-spiro[4,5]dec-2-ene-3-carboxylic acid (thiophen-2-ylmethyl)-amide] registered an inhibition at 10 µM of 41%.

As for `CN(C)S(=O)(=O)N1CCC2(CC1)CC(C(=O)NCc1ccc(C(F)(F)F)c(F)c1)=NO2` [Example 72, 8-dimethylsulphamoyl-1-oxa-2,8-diaza-spiro[4,5]dec-2-ene-3-carboxylic acid 3-fluoro-4-trifluoromethyl-benzylamide], the inhibition at 10 µM amounted to 42%.

For `CN(CCc1c[nH]c2ccccc12)C(=O)C1=NOC2(CCN(S(=O)(=O)c3ccc(OC(F)(F)F)cc3)CC2)C1` [Example 16, 8-(4-trifluoromethoxy-benzenesulphonyl)-1-oxa-2,8-diaza-spiro[4,5]dec-2-ene-3 carboxylic acid [2-(1 H-indo1-3-yl)-ethyl]-methyl-amide], the “5HT-uptake, 10 μM, % inhibition” value was determined as 60%.

For the molecule `N#CCCN(CC1CCCO1)C(=O)C1=NOC2(CCN(S(=O)(=O)c3cc(Cl)ccc3Cl)CC2)C1` (stereo not drawn) [Example 100], the “5HT-uptake, 10 μM, % inhibition” value is 43%.

Turning to `O=C(C1=NOC2(CCN(S(=O)(=O)c3cccc(C(F)(F)F)c3)CC2)C1)N1CCN(Cc2ccc3ccccc3c2)CC1` [Example 35, (4-naphthalen-2-ylmethyl-piperazin-l-yl)-[8-(3-trifluoromethyl-benzenesulphonyl)-1-oxa-2,8-diaza-spiro[4,5]dec-2-en-3-yl]-methanone], the “5HT-uptake, 10 μM, % inhibition” value came out at 44%.

Molecule `O=C(NC1CCCCCCC1)C1=NOC2(CCN(S(=O)(=O)c3ccc(OC(F)(F)F)cc3)CC2)C1` [Example 86, 8-(4-trifluoromethoxy-benzenesulphonyl)-1-oxa-2,8-diaza-spiro[4,5]dec-2-ene-3-carboxylic acid cyclooctylamide] yielded an inhibition at 10 µM of 46%.

For the molecule `CN(C)S(=O)(=O)N1CCC2(CC1)CC(C(=O)NCc1ccc(F)cc1F)=NO2` [Example 77, 8-dimethylsulphamoyl-1-oxa-2,8-diaza-spiro[4,5]dec-2-ene-3-carboxylic acid 2,4-difluorobenzylamide], 10 µM produced 41% inhibition.

Take `CN(C)c1cccc(C(=O)N2CCC3(CC2)CC(C(=O)NCCC#N)=NO3)c1` [Example 43, 8-(3-dimethylamino-benzoyl)-1-oxa-2,8-diaza-spiro[4,5]dec-2-ene-3-carboxylic acid (2-cyano-ethyl)-amide]: the inhibition at 10 µM worked out at 41%.

Regarding `COc1cc(OC)cc(N2CCN(C(=O)C3=NOC4(CCN(S(=O)(=O)c5ccc(Cl)s5)CC4)C3)CC2)c1` [Example 71, [8-(5-chloro-thiophene-2-sulphonyl)-1-oxa-2,8-diaza-spiro[4,5]dec-2-en-3-yl]-[4-(3,5-dimethoxy-phenyl)-piperazin-l-yl]-methanone], the “5HT-uptake, 10 μM, % inhibition” value is 43%.

Molecule `CCCC(=O)N1CCC2(CC1)CC(C(=O)Nc1ccccc1)=NO2` [Example 85, 8-butyryl-1-oxa-2,8-diaza-spiro[4,5]dec-2-ene-3-carboxylic acid phenylamide] came in with an inhibition at 10 µM of 41%.

`CCOC(=O)CCNC(=O)C1=NOC2(CCN(C(=O)c3c(Cl)ccc(C)c3F)CC2)C1` [Example 148]: the “5HT-uptake, 10 μM, % inhibition” value was determined as 47%.

Molecule `Cc1ccc(S(=O)(=O)NC(Cc2ccccc2)C(=O)N2CCC3(CC2)CC(C(=O)NCCC#N)=NO3)cc1` (stereo not drawn) [Example 41, 8-[3-phenyl-2-(toluene-4-sulphonylamino)-propionyl]-1-oxa-2,8-diaza-spiro[4,5]dec-2-ene-3-carboxylic acid (2-cyano-ethyl)-amide] returned an inhibition at 10 µM of 70%.

Consider `O=C(NC1CCN(Cc2ccc(C(F)(F)F)cc2)C1)C1=NOC2(CCN(S(=O)(=O)c3cccs3)CC2)C1` (stereo not drawn) [Example 26, 8-(thiophene-2-sulphonyl)-1-oxa-2,8-diaza-spiro[4,5]dec-2-ene-3-carboxylic acid [1-(4-trifluoromethyl-benzyl)-pyrrolidin-3-yl]-amide], for which the inhibition at 10 µM came out at 65%.

With `CCSCCNC(=O)C1=NOC2(CCN(S(=O)(=O)N(C)C)CC2)C1` [Example 161], the “5HT-uptake, 10 μM, % inhibition” value was 44%.

For `CCOP(=O)(Cc1ccc(NC(=O)C2=NOC3(CCN(S(=O)(=O)Cc4ccccc4)CC3)C2)cc1)OCC` [Example 2], the “5HT-uptake, 10 μM, % inhibition” value was found to be 55%.

In turn, `O=C(C1=NOC2(CCN(S(=O)(=O)c3cccc(C(F)(F)F)c3)CC2)C1)N1CCN(CCCc2ccccc2)CC1` [Example 83, [4-(3-phenyl-propyl)-piperazin-1-yl]-[8-(3-trifluoromethyl-benzenesulphonyl)-1-oxa-2,8-diaza-spiro[4,5]dec-2-en-3-yl]-methanone] displayed an inhibition at 10 µM of 52%.

Molecule `CC(=O)N1CCC2(CC1)CC(C(=O)NCc1ccccc1)=NO2` [Example 48, 8-acetyl-1-oxa-2,8-diaza-spiro[4,5]dec-2-ene-3-carboxylic acid benzylamide] gave an inhibition at 10 µM of 41%.

`COc1cccc(CNC(=O)C2=NOC3(CCN(S(=O)(=O)c4ccc(OC(F)(F)F)cc4)CC3)C2)c1` [Example 162, 8-(4-trifluoromethoxy-benzenesulphonyl)-1-oxa-2,8-diaza-spiro[4,5]dec-2-ene-3-carboxylic acid 3-methoxy-benzylamide] gave an inhibition at 10 µM of 40%.

Molecule `O=C(NC(c1ccccc1)c1ccccc1)C1=NOC2(CCN(S(=O)(=O)c3ccc(Cl)s3)CC2)C1` [Example 40, 8-(5-chloro-thiophene-2-sulphonyl)-1-oxa-2,8-diaza-spiro[4,5]dec-2-ene-3 carboxylic acid benzhydryl-amide] came in with an inhibition at 10 µM of 45%.

Molecule `CCCS(=O)(=O)N1CCC2(CC1)CC(C(=O)NCC(C)C)=NO2` [Example 82, 8-(propane-1-sulphonyl)-1-oxa-2,8-diaza-spiro[4,5]dec-2-ene-3-carboxylic acid isobutyl-amide] returned an inhibition at 10 µM of 42%.

Molecule `Cc1ccc(S(=O)(=O)N2CCC3(CC2)CC(C(=O)N(CCC#N)Cc2ccccc2)=NO3)cc1` [Example 28, 8-(toluene-4-sulphonyl)-1-oxa-2,8-diaza-spiro[4,5]dec-2-ene-3-carboxylic acid benzyl-(2-cyano-ethyl)-amide] gave an inhibition at 10 µM of 43%.

`CC(=O)NCCNC(=O)C1=NOC2(CCN(S(=O)(=O)c3cc(F)ccc3C)CC2)C1` [Example 17, 8-(5-fluoro-2-methyl-benzenesulphonyl)-1-oxa-2,8-diaza-spiro[4,5]dec-2-ene-3 carboxylic acid (2-acetylamino-ethyl)-amide] came in with an inhibition at 10 µM of 46%.

The molecule `Cc1cc(C(=O)N2CCC3(CC2)CC(C(=O)NCC(C)C)=NO3)ccc1Br` [Example 88, 8-(4-bromo-3-methyl-benzoyl)-1-oxa-2,8-diaza-spiro[4,5]dec-2-ene-3-carboxylic acid isobutyl-amide] came in with an inhibition at 10 µM of 46%.

Take `CCOc1ccccc1CNC(=O)C1=NOC2(CCN(S(=O)(=O)Cc3ccccc3)CC2)C1` [Example 51, 8-phenylmethanesulphonyl-1-oxa-2,8-diaza-spiro[4,5]dec-2-ene-3-carboxylic acid 2-ethoxy-benzylamide]: the inhibition at 10 µM was 49%.

For the molecule `N#CCCN(Cc1cccnc1)C(=O)C1=NOC2(CCN(S(=O)(=O)c3cc(Cl)ccc3Cl)CC2)C1` [Example 99, 8-(2,5-dichloro-benzenesulphonyl)-1-oxa-2,8-diaza-spiro[4,5]dec-2-ene-3-carboxylic acid (2-cyano-ethyl)-pyridin-3-ylmethyl-amide], the inhibition at 10 µM came to 44%.

For orientation: inhibition means the share of the control response that was lost under treatment. Low readings indicate a weak effect, high ones a strong effect.
